Consider seven compounds from PubChem BioAssay (NCI).

Holding throughout (assay): NCI anticancer screen, dose series, 48 h
Test [1] deals with COLO 205 colon.
For test [2], the system named is SK-MEL-5 melanoma.
For test [3], the system named is U251 CNS.
The subject of test [4] is T-47D breast.
For test [5], the system named is SF-295 CNS.
Test [6] concerns EKVX NSCLC.
Test [7] relates to MDA-MB-231 breast.
The subject of test [8] is SN12C renal.
Test [9] relates to SR leukemia.
The subject of test [10] is RPMI-8226 leukemia.

Each structure is given as a SMILES string.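 96-well plates; 48 h exposure; 5 concentrations. Endpoints by linear interpolation between flanking doses. Not reached: highest tested concentration assigned. GI50 is the concentration that inhibits growth by half. Definition used: TGI = concentration required for complete inhibition of growth.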 Bounds are passed on as bounds.

Regarding `CCOc1ccc2nc(-c3cccc(OCC(=O)NC(C)C)c3)nc(Nc3ccc(-c4cn[nH]c4)cc3)c2c1`, the GI50 is 686 nM in test [1]; 1170 nM in [2]; 431 nM in test [3]; 292 nM in test [4]; 711 nM in test [5]; 1220 nM in test [6]. For the same compound, the GI50 was 1680 nM in test [7], 1060 nM in test [8], 1130 nM in test [9] and 232 nM in [10]. Moreover, the TGI was 5.4 µM in [1]; 2.58 µM in test [2]; 2.15 µM in test [3]; 3.57 µM in test [4]; 3.01 µM in test [5]; 8.34 µM in test [6]. The TGI in test [7] was 10.7 µM; in test [8], 3.76 µM; in test [9], over 43 µM; in test [10], 4.9 µM.

With `Fc1cccc(CSc2ncnc3c2ncn3C2CCCS2)c1` (stereo not given), the TGI in test [1] was 24.4 µM; in test [2], 22.5 µM; in test [3], 42.8 µM; in test [4], over 100 µM; in test [5], 41.1 µM; in test [6], 81.2 µM. The TGI in test [7] was over 100 µM; in test [8] it was 82 µM; in test [9], 34 µM; in test [10], 52.1 µM.

As to `CC(=O)OCc1ccc(O)c(C=O)c1`, the TGI in test [1], in test [2], in test [3], in test [4], in test [5] and in [6] was over 100 µM throughout. The TGI in [7], in test [8], in [9] and in test [10] was over 100 µM each time.

On to `CC1(C)N=C(N)N=C(N)N1c1ccc(CCc2ccc(Cl)cc2S(=O)(=O)F)c(Cl)c1`, for which the GI50 in test [1] is 10400 nM; in test [2], 4390 nM; in test [3] it was 4420 nM; in test [4], 17000 nM; in [5], 4820 nM; in test [6] it was 11300 nM. In addition, the GI50 was 10300 nM in [7], 7980 nM in [8], 6050 nM in test [9] and 10200 nM in test [10]. Further, the TGI was 24 µM in [1]; 16.3 µM in test [2]; 20.6 µM in test [3]; 45.2 µM in [4]; over 100 µM in test [5]; over 100 µM in test [6]. The TGI in test [7] is 67.5 µM; in [8], over 100 µM; in test [9], 76.5 µM; in test [10], 38.5 µM.

As to `Oc1ccc2ccccc2c1C1NN=C(c2ccccc2)S1` (stereo not given), the GI50 was 550 nM in test [1]; 342 nM in test [2]; 461 nM in test [3]; 525 nM in test [4]; 475 nM in test [5]; 633 nM in [6]. Also, the GI50 in test [7] is 621 nM; in test [8], 610 nM; in test [9], 473 nM; in test [10], 237 nM. Also, the TGI was 16.3 µM in test [1]; 2 µM in [2]; 48.5 µM in [3]; 33.5 µM in [4]; 62.2 µM in test [5]; over 94.7 µM in test [6]. Further, the TGI in test [7] was 35.7 µM; in test [8], 35.7 µM; in [9], over 100 µM; in test [10], over 100 µM.

For `COc1ccc2c(c1)c1nc3cc(C)c(C)cc3nc1n2CCN(C)C`, the GI50 in test [1] is 420 nM; in test [2], 1620 nM; in test [3], 570 nM; in test [4] it was 1200 nM; in test [5] it was 677 nM; in [6], 1160 nM. In addition, the GI50 is 1170 nM in test [7], 534 nM in test [8], 428 nM in test [9] and 453 nM in test [10]. Also, the TGI is 1.88 µM in test [1]; 3.01 µM in test [2]; 2.19 µM in test [3]; 4.25 µM in test [4]; 1.95 µM in [5]; 2.85 µM in [6]. The TGI stood at 2.76 µM in [7], 1.99 µM in test [8], 4.81 µM in [9] and 2.35 µM in test [10].

Take `CC(=O)OC1CC[C@@]2(C)C(CC[C@]3(C)C2CC=C2[C@@H]4CC(C)(C)CCC4(C)CCC23C)[C@@]1(C)C(=O)O` (stereo not given in full): the TGI in test [1] was determined as 48.5 µM; in [2] it was 47.9 µM; in test [3], 32 µM; in test [4], 44.9 µM; in test [5] it was 51.3 µM; in test [6], 39.5 µM. Moreover, the TGI in [7] is 44.2 µM; in test [8] it was 41.3 µM; in [9] it was over 78.3 µM; in test [10], 58.1 µM.
